Experimental data from patent US20230203041A1, “ANTAGONISTS OF THE ADENOSINE A2A RECEPTOR” (AdoRx Therapeutics Limited, priority 2020, published 2023).

Tests used:
[1] = target: T1, human Adenosine A1 receptor (Homo sapiens, UniProt P30542); test: Adenosine receptor TR-FRET binding assay (CA200645 displacement), A1
T1 sequence (P30542 1-326): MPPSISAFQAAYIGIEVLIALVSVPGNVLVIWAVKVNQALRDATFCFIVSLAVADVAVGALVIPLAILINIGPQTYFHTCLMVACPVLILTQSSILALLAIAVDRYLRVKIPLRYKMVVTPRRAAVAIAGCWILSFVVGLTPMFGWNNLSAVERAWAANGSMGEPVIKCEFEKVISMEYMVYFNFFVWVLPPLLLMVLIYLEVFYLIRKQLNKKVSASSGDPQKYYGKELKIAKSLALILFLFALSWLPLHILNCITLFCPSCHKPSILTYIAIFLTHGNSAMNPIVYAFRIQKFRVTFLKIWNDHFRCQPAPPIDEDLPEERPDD

human PBMCs = test: CD3/CD28 stimulated IL-2 release NECA reversal assay in human PBMCs; type: cell-based; details: PBMC, CD3/CD28 antibody stimulated, 1 uM NECA, 24 hours, IL-2 in culture supernatant;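 further: dose-response as % inhibition where 100% equals no-NECA control wells with CD3/CD28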
Procedure: Blood is drawn from healthy volunteers using sodium citrate as the anticoagulant (0.3% final concentration). After centrifugation of the blood over Histopaque-1077, PBMCs are collected from the Histopaque/plasma interface and washed twice in PBS (300 g for 10 mins at room temp). Cells are plated at 50,000 cells/well in 150 μl RPMI/10% FCS in 96-well cell culture plates that have been precoated with 1 ug/ml CD3 antibody. 50 μl diluted compound mix is added to the cells, to obtain final concentrations of 1 ug/ml CD28 antibody, 1 uM NECA and 0.003-10 μM adenosine receptor antagonist. Assay plates are incubated for 24 hours at 37° C. in a humidified incubator. Culture supernatant is tested for IL-2 levels using the human IL-2 Tissue Culture Kit (Meso Scale Discovery).

[2] = target: T2, human Adenosine A3 receptor (Homo sapiens, UniProt P0DMS8); test: Adenosine receptor TR-FRET binding assay (CA200645 displacement), A3
T2 sequence (P0DMS8 1-318): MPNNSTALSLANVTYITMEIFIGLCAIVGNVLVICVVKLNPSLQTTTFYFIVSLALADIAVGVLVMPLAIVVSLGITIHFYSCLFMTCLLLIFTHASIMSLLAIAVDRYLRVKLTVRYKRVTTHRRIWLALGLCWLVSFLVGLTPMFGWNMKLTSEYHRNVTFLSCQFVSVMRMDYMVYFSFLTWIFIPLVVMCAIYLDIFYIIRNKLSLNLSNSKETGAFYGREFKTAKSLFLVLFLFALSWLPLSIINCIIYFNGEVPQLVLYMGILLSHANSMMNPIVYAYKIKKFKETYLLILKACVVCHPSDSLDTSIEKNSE

[3] = target: T3, human Adenosine A2a receptor (Homo sapiens, UniProt P29274); test: Adenosine receptor TR-FRET binding assay (CA200645 displacement), A2a; details: 100 nM CA200645, CHO cell membranes, 2 hours at room temperature
T3 construct: expressed in transfected cells; host or cells: CHO cell membranes

[4] = target: T4, human Adenosine A2b receptor (Homo sapiens, UniProt P29275); test: Adenosine receptor TR-FRET binding assay (CA200645 displacement), A2b; details: 30 nM CA200645, CHO cell membranes, 2 hours at room temperature
T4 construct: expressed in transfected cells; host or cells: CHO cell membranes
T4 sequence (P29275 1-332): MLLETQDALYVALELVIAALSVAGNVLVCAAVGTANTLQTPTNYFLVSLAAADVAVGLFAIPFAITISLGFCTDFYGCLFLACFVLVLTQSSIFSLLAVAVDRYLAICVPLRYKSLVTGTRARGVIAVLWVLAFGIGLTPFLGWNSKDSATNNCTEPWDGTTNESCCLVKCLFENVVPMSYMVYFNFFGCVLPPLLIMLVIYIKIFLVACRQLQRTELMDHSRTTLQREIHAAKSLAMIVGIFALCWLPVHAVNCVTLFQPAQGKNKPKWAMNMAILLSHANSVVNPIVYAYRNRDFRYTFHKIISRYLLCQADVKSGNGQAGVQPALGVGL

T3 sequence (P29274 whole entry): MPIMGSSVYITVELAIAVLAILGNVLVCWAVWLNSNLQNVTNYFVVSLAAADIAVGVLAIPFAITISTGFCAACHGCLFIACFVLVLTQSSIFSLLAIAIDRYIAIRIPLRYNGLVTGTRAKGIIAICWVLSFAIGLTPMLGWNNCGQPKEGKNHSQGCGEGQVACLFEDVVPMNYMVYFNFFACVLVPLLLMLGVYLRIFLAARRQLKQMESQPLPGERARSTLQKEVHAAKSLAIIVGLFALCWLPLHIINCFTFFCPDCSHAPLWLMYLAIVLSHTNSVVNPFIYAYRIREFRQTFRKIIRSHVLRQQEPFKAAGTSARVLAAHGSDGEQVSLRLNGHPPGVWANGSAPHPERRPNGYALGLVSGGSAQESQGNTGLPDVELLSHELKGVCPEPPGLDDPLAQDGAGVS

Compound	Ki [1] [nM]	IC50 (human PBMCs) [nM]	Ki [2] [nM]	Ki [3] [nM]	Ki [4] [nM]
Cc1cc(-c2c(-c3cccc(C#N)c3)nn3ccc(C(=O)NC4COC4)nc23)cc(Cl)n1 [Example 5.5]	200	21	> 1000	1.7	55
N#Cc1c(-c2ccccc2F)nn2ccc(NCc3ccccc3)nc12 [Example 35, 5-(Benzylamino)-2-(2-fluorophenyl)pyrazolo[1,5-a]pyrimidine-3-carbonitrile]	4	408	–	4.5	122
CC(C)(C)OC(=O)N1CCO[C@@H](CNc2ccn3nc(-c4ccco4)c(C#N)c3n2)C1 [Example 37.1]	45	477	2090	13.3	46
Brc1c(-c2ccco2)nn2ccc(NCc3ccccc3)nc12 [Example 44, N-Benzyl-3-bromo-2-(2-furyl)pyrazolo[1,5-a]pyrimidin-5-amine]	141	501	25	3.4	2850
N#Cc1c(-c2ccco2)nn2ccc(NCc3ccccc3)nc12 [Example 45, 5-(Benzylamino)-2-(2-furyl)pyrazolo[1,5-a]pyrimidine-3-carbonitrile]	6	107	–	0.5	74
NC(=O)c1c(-c2ccco2)nn2ccc(NCc3ccccc3)nc12 [Example 46, 5-(Benzylamino)-2-(2-furyl)pyrazolo[1,5-a]pyrimidine-3-carboxamide]	146	60	1270	2.7	257
O=Cc1c(-c2ccco2)nn2ccc(NCc3ccccc3)nc12 [Example 47, 5-(Benzylamino)-2-(2-furyl)pyrazolo[1,5-a]pyrimidine-3-carbaldehyde]	174	140	510	5.2	483
c1ccc(CNc2ccn3nc(-c4ccco4)cc3n2)cc1 [Example 48, N-Benzyl-2-(2-furyl)pyrazolo[1,5-a]pyrimidin-5-amine]	137	1890	41	16.6	1170
Cc1cccnc1CN1CCN(c2ccn3nc(-c4ccco4)c(C#N)c3n2)CC1 [Example 51, 2-(2-Furyl)-5-[4-[(3-methyl-2-pyridyl)methyl]piperazin-1-yl]pyrazolo[1,5-a]pyrimidine-3-carbonitrile]	125	73	2120	24.1	2550
Cn1cc(-c2c(-c3ccco3)nn3ccc(NCc4ccccc4)nc23)cn1 [Example 53, N-benzyl-2-(2-furyl)-3-(1-methylpyrazol-4-yl)pyrazolo[1,5-a]pyrimidin-5-amine]	214	128	618	27.7	–
N#Cc1cccc(-c2nn3ccc(NCc4ccccc4)nc3c2C#N)c1 [Example 58, 5-(Benzylamino)-2-(3-cyanophenyl)pyrazolo[1,5-a]pyrimidine-3-carbonitrile]	83	118	> 1000	2	–
N#Cc1c(-c2cccc(F)c2)nn2ccc(NCc3ccccc3)nc12 [Example 70, 5-(Benzylamino)-2-(3-fluorophenyl)pyrazolo[1,5-a]pyrimidine-3-carbonitrile]	2	177	–	2.2	181
N#Cc1cccc(-c2nn3ccc(N4CCN(CCF)CC4)nc3c2C#N)c1 [Example 87, 2-(3-Cyanophenyl)-5-[4-(2-fluoroethyl)piperazin-1-yl]pyrazolo[1,5-a]pyrimidine-3-carbonitrile]	2280	57	> 1000	23.6	–
Cc1cc(-c2c(-c3cccc(C#N)c3)nn3ccc(C(=O)N[C@@H]4CN(C)C[C@H]4O)nc23)cc(C)n1 [Example 92.32]	459	–	> 1000	2.9	24
Cc1cc(-c2c(-c3cccc(C#N)c3)nn3ccc(C(=O)NC[C@@H]4CCC(=O)N4)nc23)cc(C)n1 [Example 92.33]	652	–	> 1000	13	57
Cc1cc(-c2c(-c3cccc(C#N)c3)nn3ccc(NC(=O)[C@](C)(O)C(F)(F)F)nc23)cc(C)n1 [Example 94.3, (2S)—N-[2-(3-Cyanophenyl)-3-(2,6-dimethyl-4-pyridyl)pyrazolo[1,5-a]pyrimidin-5-yl]-3,3,3-trifluoro-2-hydroxy-2-methyl-propanamide]	184	–	> 1000	2	15
Cc1cc(-c2c(-c3cccc(C#N)c3)nn3ccc(NC(=O)C(C)(C)C)nc23)cc(Cl)n1 [Example 95, N-[3-(2-Chloro-6-methyl-4-pyridyl)-2-(3-cyanophenyl)pyrazolo[1,5-a]pyrimidin-5-yl]-2,2-dimethyl-propanamide]	146	–	> 1000	2.7	31
C=C(C)[C@H](C)NC(=O)c1ccn2nc(-c3cccc(C#N)c3)c(-c3cc(C)nc(C)c3)c2n1 [Example 99, 2-(3-Cyanophenyl)-N-[(1S)-1,2-dimethylallyl]-3-(2,6-dimethyl-4-pyridyl)pyrazolo[1,5-a]pyrimidine-5-carboxamide]	99	–	> 1000	0.4	35
Cc1cc(-c2c(-c3cccc(C#N)c3)nn3ccc(C(=O)N[C@@H](C)C(C)(C)O)nc23)cc(CO)n1 [Example 100, 2-(3-Cyanophenyl)-N-[(1S)-2-hydroxy-1,2-dimethyl-propyl]-3-[2-(hydroxymethyl)-6-methyl-4-pyridyl]pyrazolo[1,5-a]pyrimidine-5-carboxamide]	64	–	> 1000	0.4	28
Cc1cc(-c2c(-c3cccc(C#N)c3)nn3ccc(C(=O)NCC4(C)NC(=O)NC4=O)nc23)c(F)c(C)n1 (stereo not drawn) [Example 101, 2-(3-Cyanophenyl)-3-(3-fluoro-2,6-dimethyl-4-pyridyl)-N-[(4-methyl-2,5-dioxo-imidazolidin-4-yl)methyl]pyrazolo[1,5-a]pyrimidine-5-carboxamide]	1510	–	> 1000	5	13
Cc1cc(-c2c(-c3cccc(C#N)c3)nn3ccc(C(=O)NCC(C)(C)O)nc23)c(F)c(C)n1 [Example 101.1, 2-(3-Cyanophenyl)-3-(3-fluoro-2,6-dimethyl-4-pyridyl)-N-(2-hydroxy-2-methyl-propyl)pyrazolo[1,5-a]pyrimidine-5-carboxamide]	1240	–	> 1000	4.3	38
Cc1cc(-c2c(-c3cccc(C#N)c3)nn3ccc(N4CCC5(CC4)CNC(=O)C5)nc23)cc(C)n1 [Example 105, 3-[3-(2,6-Dimethyl-4-pyridyl)-5-(3-oxo-2,8-diazaspiro[4.5]decan-8-yl)pyrazolo[1,5-a]pyrimidin-2-yl]benzonitrile]	776	–	> 1000	127	378
Cc1cc(-c2c(-c3cccc(C#N)c3)nn3ccc(NC4CCN(C)C(=O)C4)nc23)cc(C)n1 (stereo not drawn) [Example 105.2, 3-[3-(2,6-Dimethyl-4-pyridyl)-5-[(1-methyl-2-oxo-4-piperidyl)amino]pyrazolo[1,5-a]pyrimidin-2-yl]benzonitrile]	35	–	> 1000	1.7	18
